Experimental data as given in ChEMBL document CHEMBL5104193, “Hypoxia-Activated Prodrugs with Dual COX-2/CA Inhibitory Effects on Attenuating Cardiac Inflammation under Hypoxia” (J Med Chem, 2022).
The source made the active and inactive calls. The calls are words filed in the database; no cut-off is given here.

Test system: H9c2
Assay: Protection against LPS induced cell injury in rat H9c2 cells assessed as increase in cell viability under hypoxic condition at 0.001 to 10 uM by CCK-8 assay
Format: functional, cell-based
Conditions: dose 0.001-10 µM

| SMILES | Activity |
| --- | --- |
| COc1ccc2c(c1)c(CC(=O)OCc1cc(C)cc(CO)c1OCc1ccc([N+](=O)[O-])cc1)c(C)n2C(=O)c1ccc(Cl)cc1 | Active |
| COc1ccc2cc([C@H](C)C(=O)OCc3cc(C)cc(COC(=O)Cn4cc(CCCCC(=O)Nc5nnc(S(N)(=O)=O)s5)nn4)c3OCc3ccc([N+](=O)[O-])cc3)ccc2c1 | Active |
| COc1ccc2c(c1)c(CC(=O)OCc1cc(C)cc(COC(=O)NCCc3ccc(S(N)(=O)=O)cc3)c1OCc1ccc([N+](=O)[O-])cc1)c(C)n2C(=O)c1ccc(Cl)cc1 | Active |
| Cc1cc(CO)c(OCc2ccc([N+](=O)[O-])cc2)c(COC(=O)Cn2cc(CCCCC(=O)Nc3nnc(S(N)(=O)=O)s3)nn2)c1 | Active |
